# From article PMC10937419, “Exploring pyrrolidinyl-spirooxindole natural products as promising platforms for the synthesis of novel spirooxindoles as EGFR/CDK2 inhibitors for halting breast cancer cells” (Frontiers in Chemistry, 2024)
# How the values were obtained:
# A549 cells = test system: A549 cells; design: method as in Barakat, et al., 2023; conditions: ref Barakat, et al., 2023, cited from earlier work
# EGFR kinase = biological target: T1, EGFR kinase (Homo sapiens, UniProt P00533); test: EGFR kinase inhibition assay; format: biochemical; conditions: for % remaining EGFR kinase activity (relative to control): signal relative to control; for % remaining EGFR kinase activity (relative to control) / inhibition at 0.01 µM / inhibition at 0.1 µM / inhibition at 1 µM / inhibition at 2.5 µM / inhibition at 5 µM / inhibition at 10 µM: ΔT=30 min; for IC50: average of three independent replicates; for % Of EGFR inhibition: concentration not given in Table 2, matches 10 µM in the 4th table
# T1 construct: purchased BPS Bioscience Corporation 40321
# Procedure: (§1) Inhibitory activities of 5g, 5l, and 5n were tested against EGFR and CDK-2.
# (§2) Plus, Promega, USA) inhibition assay.
# MCF-7 cells [1] = test: MTT cytotoxicity assay, MCF-7 breast cancer cells; format: cell-based; conditions: Homo sapiens, MCF7; MTT assay; mean ± SD of three independent trials; read-out: IC50 ± SD, MCF-7
# Procedure: (§3) All cells were incubated at 37 °C in 5% carbon dioxide atmosphere (NuAire). Cells were plated at a density of 5x10^4 cells in triplicates in a plate of 96 wells. On the second day, cells were treated with the compounds with concentrations of (0.01, 0.1, 1, 10, and 100 µM). Cell viability was assessed using the MTT assay [6].
# MCF-7 cells [2] = test: RT-PCR gene expression of apoptosis-related genes; format: cell-based; conditions: MCF-7, at the IC50 value, 48 h
# Description: Both the untreated and treated MCF-7 cells were subjected to RT-PCR to confirm apoptotic cell death (Figure 5). […] These findings are in line with the possibility of triggering cell death by blocking enzymes. Activation of the intrinsic apoptotic pathway leads to mitochondrial potential loss and cytochrome c release. When the ratio of proteins that promote cell death to those that prevent it rises, a cascade reaction involving caspases 3 and 9 is set in motion, leading to cell death by caspase-dependent apoptosis.
# “Values are expressed as Mean ± SD of three independent replicates”. “Data were normalized using β-actin as house-keeping gene. The dashed line represents the gene expression level of untreated control. Fold change was calculated using 2^^- ΔΔCT”.
# Gene expression of Bcl-2, the anti-apoptotic gene, and the pro-apoptotic genes P53, Bax, and Caspapses-3,8,9 were examined to delve deeper into the apoptotic pathway. […] After treatment, RT-PCR reaction was carried out following routine work. Then, the Ct values were collected to calculate the relative genes’ expression in all samples by normalization to the β-actin housekeeping gene.
# MDA-MB-231 cells = test: MTT cytotoxicity assay, MDA-MB-231 breast cancer cells; format: cell-based; conditions: Homo sapiens, MDA-MB-231, MTT assay; mean ± SD of three independent trials; read-out: IC50 ± SD, MDA-MB-231
# Procedure: as §3
# MCF-7 cells [3] = test: Annexin V/PI staining flow cytometry (apoptosis/necrosis); format: cell-based; conditions: MCF-7, at the IC50 value, 48 h
# Procedure: The apoptotic activity of compounds 5g was determined by flow cytometric analysis of Annexin V/PI staining of untreated and treated MCF-7 cells. […] Additionally, they induced necrotic cell death by 5.43% compared to 2.12% in the untreated control.
# FIGURE 4 (A) Bar representation of the percentage of apoptosis (early and late apoptotic cell population) using Annexin V/Propidium Iodide staining.
# MCF-7 cells were seeded into 6-well culture plates (3-5× 10^5 cells/well) and incubated overnight. […] Next, media supernatants and cells were collected and rinsed with ice-cold PBS. Then cells were suspended the cells in 100 µL of annexin binding buffer solution "25 mM CaCl2, 1.4 M NaCl, and 0.1 M Hepes/NaOH, pH 7.4” and incubation with “Annexin V-FITC solution (1:100) and propidium iodide (PI)” at a concentration equals 10 µg/mL in the dark for 30 min. Stained cells were then acquired by BD FACSCalibur™ Flow Cytometer.
# WISH cells = test: MTT cytotoxicity (safety) assay, normal WISH cells; format: cell-based; conditions: mean ± SD of three independent trials
# Procedure: The cytotoxicity of the synthesized compounds was tested using the MTT assay on breast cancer cells (MCF-7 and MDA-MB-231).
# The methods for the Cytotoxic activity ([Mosmann, 1983]; [Nafie et al., 2020a]); EGFR/CDK-2 enzyme inhibition ([Nafie et al., 2022a]); Flow cytometry using Annexin V/PI staining; Gene expression analysis using RT-PCR ([Nafie et al., 2022b]); are amended in the Supplementary Material S1.
# as §3, with “Both breast cancer; MCF-7 and MDA-MB-231 and normal (WISH) cells were purchased from the National Research Institute, Egypt, and maintained in RPMI-1640 medium L-Glutamine (Lonza Verviers SPRL, Belgium, cat#12-604F). All” for “All”
# MCF-7 cells [4] = test: Cell cycle analysis by flow cytometry; format: cell-based; conditions: MCF-7, at the IC50 value, 48 h
# CDK-2 kinase = biological target: T2, CDK-2 kinase (Homo sapiens, UniProt P24941); test: CDK-2 kinase inhibition assay (Kinase-Glo Plus); format: biochemical; conditions: for CDK-2 kinase activity remaining (% of control): signal relative to control; for CDK-2 kinase activity remaining (% of control) / inhibition at 0.01 µM / inhibition at 0.1 µM / inhibition at 1 µM / inhibition at 2.5 µM / inhibition at 5 µM / inhibition at 10 µM: ΔT=30 min; for inhibition at 0.01 µM / inhibition at 0.1 µM / inhibition at 1 µM / inhibition at 2.5 µM / inhibition at 5 µM / inhibition at 10 µM: read-out: % of inhibition, CDK2; for IC50: average of three independent replicates
# T2 construct: purchased not clearly printed (Promega, USA is printed after 'Kinase-Glo Plus'; #79599 is a BPS Bioscience number to my knowledge) 79599
# Procedure: as §1, §2
# EGFR = test system: EGFR; design: method as in Al-Jassas, et al., 2023; conditions: ref Al-Jassas, et al., 2023; read-out: IC50 for EGFR inhibition; cited from earlier work
# MCF-7 = test system: MCF-7; design: method as in Al-Jassas, et al., 2023; conditions: ref Al-Jassas, et al., 2023; cited from earlier work
# CDK-2 = test system: CDK-2; design: method as in Al-Jassas, et al., 2023; conditions: ref Al-Jassas, et al., 2023; read-out: CDK-2 inhibition; cited from earlier work
# HepG2 = test system: HepG2; design: method as in Al-Jassas, et al., 2023; conditions: ref Al-Jassas, et al., 2023; cited from earlier work
# T1 sequence (P00533 25-1210): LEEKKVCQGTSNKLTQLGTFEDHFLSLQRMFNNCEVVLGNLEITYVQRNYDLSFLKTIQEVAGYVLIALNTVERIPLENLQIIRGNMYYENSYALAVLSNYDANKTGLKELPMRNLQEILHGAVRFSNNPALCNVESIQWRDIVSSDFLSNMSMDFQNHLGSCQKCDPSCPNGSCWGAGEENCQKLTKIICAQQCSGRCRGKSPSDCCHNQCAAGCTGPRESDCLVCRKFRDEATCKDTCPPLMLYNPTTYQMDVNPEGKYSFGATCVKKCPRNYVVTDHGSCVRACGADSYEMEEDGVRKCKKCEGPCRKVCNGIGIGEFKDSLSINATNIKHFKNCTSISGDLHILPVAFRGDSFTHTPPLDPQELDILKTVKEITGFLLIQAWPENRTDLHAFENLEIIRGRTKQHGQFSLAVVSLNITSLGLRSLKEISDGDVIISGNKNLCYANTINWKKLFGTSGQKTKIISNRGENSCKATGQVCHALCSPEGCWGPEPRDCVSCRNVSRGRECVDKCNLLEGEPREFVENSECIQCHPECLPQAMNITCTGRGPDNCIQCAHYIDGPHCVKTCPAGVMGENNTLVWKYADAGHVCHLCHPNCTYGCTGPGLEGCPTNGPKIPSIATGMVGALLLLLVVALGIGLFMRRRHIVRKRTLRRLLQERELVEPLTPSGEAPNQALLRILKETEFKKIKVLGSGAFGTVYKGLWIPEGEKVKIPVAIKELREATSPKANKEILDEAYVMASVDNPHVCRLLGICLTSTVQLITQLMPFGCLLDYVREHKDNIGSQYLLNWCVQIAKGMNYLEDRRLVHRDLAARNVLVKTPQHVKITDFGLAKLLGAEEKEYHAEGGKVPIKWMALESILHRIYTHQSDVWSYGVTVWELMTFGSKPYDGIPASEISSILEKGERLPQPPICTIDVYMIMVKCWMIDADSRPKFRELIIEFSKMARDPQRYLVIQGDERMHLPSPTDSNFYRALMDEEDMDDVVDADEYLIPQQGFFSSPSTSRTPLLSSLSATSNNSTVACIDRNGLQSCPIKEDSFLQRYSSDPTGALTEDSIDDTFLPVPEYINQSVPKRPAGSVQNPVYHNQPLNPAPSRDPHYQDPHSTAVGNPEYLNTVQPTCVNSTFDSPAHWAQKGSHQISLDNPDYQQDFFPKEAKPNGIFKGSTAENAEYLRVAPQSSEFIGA
structure (smiles),measurement,setting,value
O=C(c1nc2ccccc2[nH]1)[C@H]1[C@H](c2ccc(Cl)cc2Cl)C2CC3CCCCC3N2[C@@]12c1ccccc1-c1nc3ccccc3nc12 (stereo partly shown) [hit III],selectivity index (SI),A549 cells; A549 cells versus normal lung fibroblasts Wi-38,6.64
same,IC50,A549 cells,54 nM
"O=C(O)CN1C(=O)S[C@@]2(C1=O)[C@@H](c1ccc(Cl)cc1)[C@H]1CSCN1[C@@]21C(=O)Nc2ccc(Br)cc21 [Compound 5g, 2-((3S,6′S,7′S,7a′S)-5-bromo-7'-(4-chlorophenyl)-2,2″,4″-trioxo-7′,7a′-dihydro-1′H,3′H-dispiro [indoline-3,5′-pyrrolo [1,2-c]thiazole-6′,5″-thiazolidin]-3″-yl)acetic acid]",% remaining EGFR kinase activity (relative to control),EGFR kinase; 0.01 µM,90.58%
same,inhibition at 0.01 µM,EGFR kinase; 0.01 µM,9.42%
same,% remaining EGFR kinase activity (relative to control),EGFR kinase; 0.1 µM,69.72%
same,inhibition at 0.1 µM,EGFR kinase; 0.1 µM,30.3%
same,% remaining EGFR kinase activity (relative to control),EGFR kinase; 1 µM,40.27%
same,inhibition at 1 µM,EGFR kinase; 1 µM,59.7%
same,% remaining EGFR kinase activity (relative to control),EGFR kinase; 2.5 µM,33.39%
same,inhibition at 2.5 µM,EGFR kinase; 2.5 µM,66.6%
same,% remaining EGFR kinase activity (relative to control),EGFR kinase; 5 µM,31.63%
same,inhibition at 5 µM,EGFR kinase; 5 µM,68.4%
same,% remaining EGFR kinase activity (relative to control),EGFR kinase; 10 µM,7.867%
same,inhibition at 10 µM,EGFR kinase; 10 µM,92.6%
same,IC50,EGFR kinase,26 ± 6 nM
same,% Of EGFR inhibition,EGFR kinase,92.6 ± 1.9%
same,IC50,MCF-7 cells [1],2800 ± 400 nM
same,Bcl-2 gene expression fold change,"MCF-7 cells [2]; anti-apoptotic gene, downregulated",0.39 fold
same,Bax gene expression fold change,"MCF-7 cells [2]; normalized to β-actin, 2^-ΔΔCT",6.26 fold
same,P53 gene expression fold change,"MCF-7 cells [2]; normalized to β-actin, 2^-ΔΔCT",4.1 fold
same,caspase 3 gene expression fold change,"MCF-7 cells [2]; normalized to β-actin, 2^-ΔΔCT",9.2 fold
same,caspase 8 gene expression fold change,"MCF-7 cells [2]; normalized to β-actin, 2^-ΔΔCT",1.7 fold
same,caspase 9 gene expression fold change,"MCF-7 cells [2]; normalized to β-actin, 2^-ΔΔCT",6.13 fold
same,IC50,MDA-MB-231 cells,23500 ± 900 nM
same,early apoptosis,MCF-7 cells [3],21.87%
same,late apoptosis,MCF-7 cells [3],10.15%
same,necrotic cell death,MCF-7 cells [3]; untreated control 2.12%,5.43%
same,IC50,WISH cells,39300 ± 1800 nM
same,cell population in the G0-G1-phase,MCF-7 cells [4]; control 31%,39.8%
same,cell population in the S-phase,MCF-7 cells [4]; control 32.1%,45.2%
same,cells population at G2/M phase,MCF-7 cells [4]; versus untreated control,decreased
same,CDK-2 kinase activity remaining (% of control),CDK-2 kinase; 0.01 µM,90.11%
same,inhibition at 0.01 µM,CDK-2 kinase; 0.01 µM,9.89%
same,CDK-2 kinase activity remaining (% of control),CDK-2 kinase; 0.1 µM,78.5%
same,inhibition at 0.1 µM,CDK-2 kinase; 0.1 µM,21.5%
same,CDK-2 kinase activity remaining (% of control),CDK-2 kinase; 1 µM,64.55%
same,inhibition at 1 µM,CDK-2 kinase; 1 µM,35.5%
same,CDK-2 kinase activity remaining (% of control),CDK-2 kinase; 2.5 µM,60.7%
same,inhibition at 2.5 µM,CDK-2 kinase; 2.5 µM,39.3%
same,CDK-2 kinase activity remaining (% of control),CDK-2 kinase; 5 µM,33.99%
same,inhibition at 5 µM,CDK-2 kinase; 5 µM,66%
same,CDK-2 kinase activity remaining (% of control),CDK-2 kinase; 10 µM,27.2254%
same,inhibition at 10 µM,CDK-2 kinase; 10 µM,91.9%
same,IC50,CDK-2 kinase,301 nM
O=C(c1ccc(Br)cc1)[C@H]1[C@H](c2cn(-c3ccccc3)nc2-c2ccccc2)C2CC3CCCCC3N2[C@]12C(=O)Nc1ccc(Cl)cc12 (stereo partly shown) [Compound II],IC50,EGFR,96.6 nM
same,IC50,MCF-7,189 ± 10 nM
same,IC50,CDK-2,35 nM
same,IC50,HepG2,1040 ± 210 nM
"COC(=O)[C@H](C)NC(=O)CN1C(=O)S[C@@]2(C1=O)[C@@H](c1ccc(Cl)cc1)[C@H]1CSCN1[C@@]21C(=O)Nc2cc(Cl)ccc21 [Compound 5n, Methyl (2-((3S,6′S,7′S,7a′S)-6-chloro-7'-(4-chlorophenyl)-2,2″,4″-trioxo-7′,7a′-dihydro-1′H,3′H-dispiro [indoline-3,5′-pyrrolo [1,2-c]thiazole-6′,5″-thiazolidin]-3″-yl)acetyl)alaninate]",% remaining EGFR kinase activity (relative to control),EGFR kinase; 0.01 µM,71.48%
same,inhibition at 0.01 µM,EGFR kinase; 0.01 µM,28.5%
same,% remaining EGFR kinase activity (relative to control),EGFR kinase; 0.1 µM,59.63%
same,inhibition at 0.1 µM,EGFR kinase; 0.1 µM,40.4%
same,% remaining EGFR kinase activity (relative to control),EGFR kinase; 1 µM,36.13%
same,inhibition at 1 µM,EGFR kinase; 1 µM,63.9%
same,% remaining EGFR kinase activity (relative to control),EGFR kinase; 2.5 µM,37.42%
same,inhibition at 2.5 µM,EGFR kinase; 2.5 µM,62.6%
same,% remaining EGFR kinase activity (relative to control),EGFR kinase; 5 µM,30.59%
same,inhibition at 5 µM,EGFR kinase; 5 µM,69.4%
same,% remaining EGFR kinase activity (relative to control),EGFR kinase; 10 µM,8.54%
same,inhibition at 10 µM,EGFR kinase; 10 µM,91.2%
same,IC50,EGFR kinase,40 ± 1 nM
same,% Of EGFR inhibition,EGFR kinase,91.2 ± 2.1%
same,IC50,MCF-7 cells [1],3900 ± 300 nM
same,IC50,MDA-MB-231 cells,5300 ± 400 nM
same,IC50,WISH cells,47200 ± 2100 nM
same,CDK-2 kinase activity remaining (% of control),CDK-2 kinase; 0.01 µM,91.05%
same,inhibition at 0.01 µM,CDK-2 kinase; 0.01 µM,8.95%
same,CDK-2 kinase activity remaining (% of control),CDK-2 kinase; 0.1 µM,74.4404%
same,inhibition at 0.1 µM,CDK-2 kinase; 0.1 µM,25.6%
same,CDK-2 kinase activity remaining (% of control),CDK-2 kinase; 1 µM,63.25%
same,inhibition at 1 µM,CDK-2 kinase; 1 µM,36.8%
same,CDK-2 kinase activity remaining (% of control),CDK-2 kinase; 2.5 µM,61.79%
same,inhibition at 2.5 µM,CDK-2 kinase; 2.5 µM,38.2%
same,CDK-2 kinase activity remaining (% of control),CDK-2 kinase; 5 µM,47.27%
same,inhibition at 5 µM,CDK-2 kinase; 5 µM,52.7%
same,CDK-2 kinase activity remaining (% of control),CDK-2 kinase; 10 µM,42.84%
same,inhibition at 10 µM,CDK-2 kinase; 10 µM,88.7%
same,IC50,CDK-2 kinase,557 nM
same,% Of CDK-2 inhibition,"CDK-2 kinase; concentration not given in Table 2, matches 10 µM in the 5th table",88.7%
